# From patent USRE47078E1, “Polymorphic forms of N-[4-(trifluoromethyl)benzyl]-4-methoxybutyramide” (Laboratorio Farmaceutico C.T. S.R.L., priority 2007, dated 2018)
# Like-named read-outs stand apart in the source and are kept apart here.
# What was measured:
# [1] = Solubility of the polymorphs at different pH (HPLC assay); assay type: physicochemical; conditions: for solubility at 24 h / solubility at 30 min: thermodynamic from solid; for solubility at 24 h: read-out: Solubility, After 24 hours; for solubility at 30 min: read-out: Solubility, Initial evaluation
# Experimental: Both samples of powder (Form A and Form B) were used in order to evaluate the solubility properties of the two polymorphs at different pH.
# The two samples were tested in the following pH conditions: • Hydrochloric acid buffer at pH=1.2 • Acetic acid at pH=3.0 • Phosphate buffer at pH=3.0 • Phosphate buffer at pH=4.6 • Phosphate buffer at pH=6.0 • Phosphate buffer at pH=7.4 • Alkaline phosphate buffer at pH=8.0
# 0.5 g of each samples were dissolved in a glass flask using 100 ml of the appropriate buffer. The two samples were then kept under stirring for 30 minutes. If the samples were completed dissolved, 1 additional gram was added in the flask and stirred for 30 minutes. The procedure was repeated till the presence of undissolved product in the bottom of the flask. After such a dissolution procedure, the samples were stored for 24 hours and then the dissolved amounts of Form A and Form B, respectively, were determined by HPLC assay.
# Acute toxicity in rat = conditions: in vivo, single
# Experimental: (§1) Single and repeated-dose toxicity studies in rodents and non-rodents were carried out to support the clinical trials of the test compound, i.e. polymorphic Form A. Single toxicity studies were performed in mice and rats by the intraperitoneal and the oral routes. Repeated oral studies (28 days administration followed by 14 days recovery period) were performed in rats and dogs.
# Acute toxicity in mouse = conditions: in vivo, single
# Experimental: as §1
# immune system = assay: PCF test (Plaque Forming Cells) in rats; assay type: in vivo, rat
# Experimental: A possible effect of polymorphic Form A on the immune system was evaluated by using the method system of Plaque Forming Cells (PCF) in the rat, following oral administration to rats for 28 days at the doses of 150, 250 and 500 mg/kg. The method is based on the stimulation of the immune system with an antigenic agent (sheep's red blood cells) and on the evaluation of the effect of the test item on the immune response. The immune response was assessed by measuring the proportion of splenocytes which produced antibodies against the antigenic agent (Plaque Forming Cells) in presence of complement. […] In fact, statistical analysis evidenced a significativity at 150 mg/kg, but not at 250 mg/kg; these findings might indicate that the effects is observed at these doses could be due to the variability normally present in this test as heterogeneity in immune response is often seen and it is likely to be related to individual differences in immune sensitivity, […]
# [2] = test system: Sardinian Alcohol preferring rats (sP); assay: Alcohol Deprivation Effect in deprived sP rats; assay type: in vivo, rat
# Experimental: (§2) Tests were carried out in Sardinian Alcohol preferring rats (sP), i.e. a rodent line genetically selected for their spontaneous alcohol consume. These animals were adopted as the main specific animal model in the research program due to the fact that these rats (kept in a free-choice regimen between water and a 10% ethanol solution) consume large amounts of alcohol (6-7 g/Kg/day), sharing a great preference for […] (80-100%).
# (§3) Under the standard, these rats are subjected to homecage two-bottle free choice regimen between 10% alcohol and water with unlimited access (24 h/day) and they show these features: daily intake of about 6 g/Kg of alcohol; preference ratio (alcohol solution vs total fluids) above 80%; fractioning of daily alcohol intake in 3-4 binges; achievement of BALs (Blood Alcohol Levels) above 50 mg % at each binge; induction of pharmaceutical effects (anxiolysis, motor stimulation) and regulation by a central, hedonic set-point mechanism.
# 2. Alcohol Deprivation Effect in Deprived sP Rats
# To further characterize the anti-alcohol effect of polymorphic Form A, this compound was evaluated on the Alcohol Deprivation Effect (ADE). […] Intake was measured 1 hour after lights off.
# conscious rats = assay: Respiratory evaluation in conscious rats (whole body plethysmography); assay type: in vivo, rat
# Experimental: (§4) The possible adverse effects of polymorphic Form A on the CNS, cardiovascular, respiratory and immune functions were evaluated in vitro and in vivo (rats and dogs) in different experimental models. In the in vivo tests, the tested compound was always given by single oral administration at the doses of 100, 300 and 1000 mg/kg.
# The effect of polymorphic Form A on respiratory parameters (respiratory rate, peak inspiratory and peak expiratory flows, inspiration and expiration times, airway resistance index, minute volume and tidal volume) was assessed in conscious rats after single oral administration. Respiration was measured by the whole body plethysmography method.
# [3] = Thermodynamic stability / interconversion of the polymorphs; assay type: physicochemical
# rats = assay: Hexobarbital sleeping time in rats; assay type: in vivo, rat
# Experimental: as §4
# The test consists in the measurement of the duration of hexobarbital-induced sleep; substances with a sedative or antisleep action cause increase or decrease respectively in the duration of hexobarbital induced sleep.
# [4] = test system: Sardinian Alcohol preferring rats (sP); assay: Spontaneous alcohol intake in non deprived sP rats; assay type: in vivo, rat
# Experimental: as §2, §3
# 1. Spontaneous Alcohol Intake in Non Deprived sP Rats
# According to this model, the alcohol intake in a two bottles free-choice regimen represents the “active drinking” phase of human alcoholism. Therefore the tested active compounds should decrease the propension of rats to consume alcohol. […] In FIG. 8A the results of a single experiment are shown. Specifically 10, 20, 25 and 50 mg/kg doses of polymorphic Form A were administered and the alcohol intake was evaluated.
# [5] = acetic acid, pH 3, aqueous buffer, pH 3.0 (acetic acid)
# [6] = alkaline phosphate buffer, pH 8, aqueous buffer, pH 8.0
# [7] = buffer at pH 6.8 (buffer type not named for this pH), pH 6.8, aqueous buffer, pH 6.8
# [8] = hydrochloric acid buffer, pH 1.2, simulated gastric fluid, pH 1.2
# [9] = phosphate buffer, pH 3, aqueous buffer, pH 3.0 (phosphate buffer)
# [10] = phosphate buffer, pH 4.6, aqueous buffer, pH 4.6
# [11] = phosphate buffer, pH 6, aqueous buffer, pH 6.0
# [12] = phosphate buffer, pH 7.4, aqueous buffer, pH 7.4
smiles,measurement,setting,value
"COCCCC(=O)NCc1ccc(C(F)(F)F)cc1 [Polymorphic Form A, N-[4-(trifluoromethyl)benzyl]-4-methoxybutyramide]",solubility at 24 h,[1]; [5],160 µg/mL
same,solubility at 30 min,[1]; [5],124 µg/mL
same,solubility at 24 h,[1]; [6],142 µg/mL
same,solubility at 30 min,[1]; [6],134 µg/mL
same,solubility at 24 h,[1]; [7],164 µg/mL
same,solubility at 30 min,[1]; [7],106 µg/mL
same,Differences in solubility / dissolution properties between the two forms,[1]; dissolution tests on each polymorph,have not shown differences in the solubility properties
same,solubility at 24 h,[1]; [8],160 µg/mL
same,solubility at 30 min,[1]; [8],153 µg/mL
same,solubility at 24 h,[1]; [9],151 µg/mL
same,solubility at 30 min,[1]; [9],116 µg/mL
same,solubility at 24 h,[1]; [10],145 µg/mL
same,solubility at 30 min,[1]; [10],132 µg/mL
same,solubility at 24 h,[1]; [11],140 µg/mL
same,solubility at 30 min,[1]; [11],118 µg/mL
same,solubility at 24 h,[1]; [12],140 µg/mL
same,solubility at 30 min,[1]; [12],117 µg/mL
same,solubility at 24 h,"[1]; water, Water",164 µg/mL
same,solubility at 30 min,"[1]; water, Water",138 µg/mL
same,LD50,"Acute toxicity in rat; ip, dose-range 200-1000",~800 mg/kg
same,LD50,"Acute toxicity in rat; oral, os, dose-range 2000-4000",> 4000 mg/kg
same,LD50,"Acute toxicity in mouse; ip, dose-range 200-1000",~800 mg/kg
same,LD50,"Acute toxicity in mouse; oral, os, dose-range 2000-4000",> 4000 mg/kg
same,Immunosuppressant activity (Plaque Forming Cells),"immune system; 500 mg/kg oral, 28 days",clear-cut
same,Immunosuppressant activity (Plaque Forming Cells),"immune system; 150 and 250 mg/kg oral, 28 days",comparable borderline effect
same,Immunosuppressant activity (Plaque Forming Cells),"immune system; oral, 28 days, 150, 250 and 500 mg/kg",slight and not dose-dependent immunosuppressant activity
same,Extra-consume of alcohol (ADE),[2]; 5 mg/Kg,completely abolish the extra-consume of alcohol
same,Alcohol Deprivation Effect (ADE),"[2]; dose range 5-100 mg/Kg, given 30 min before lights off, intake 1 hour after lights off",completely suppressed ADE effect
same,Respiratory parameters,conscious rats; 100 mg/kg single oral,no relevant effect on respiratory parameters
same,"Peak inspiratory and peak expiratory flows, minute volume, airway resistance index","conscious rats; 100, 300 and 1000 mg/kg single oral",No statistically change
same,Respiratory rate and tidal volume,conscious rats; 300 and 1000 mg/kg single oral,tachypnoea associated to a transient reduction in tidal volume
same,"Thermodynamic stability, conversion of one form into the other",[3],"thermodynamically stable, with no conversion of one into the other"
same,Time taken to fall asleep and duration of the sleep,rats; highest dose (1000 mg/kg) oral,significant decrease of the time taken to fall asleep and of the duration of the sleep
same,Sleep duration,rats; intermediate dose (300 mg/kg) oral,slight decrease in sleep duration
same,Time taken to fall asleep and duration of the sleep,rats; lowest dose (100 mg/kg) oral,No statistical significant effect
same,Alcohol intake,"[4]; 10 mg/kg, single experiment of FIG. 8A",significantly reduced alcohol intake
same,Alcohol intake,"[4]; 10-100 mg/kg, intragastric acute administration",decreases the alcohol intake
same,Food intake,"[4]; sP rats, data not reported",normal food intake
same,Water intake,"[4]; sP rats, data not reported",compensatory increase of water intake
